Several values for one entry are separate records, joined by “and”; a condition that tells them apart may be missing. Identical values can stand only once.
Assay: in vitro permeation test, Gummer permeation vertical cells
Assay type: in vitro ADME, mice
Details: for ciclopirox permeated: 75.0 μL of composition of Example 4 on hairless mice skin, individual experiments test 1-6
Method: An in vitro permeation test was performed by applying the film forming solution according to the Example 4 to excised hairless mice skin, obtained from dorsal or abdominal skin of male hairless mice (strain MF1-hr-hr/OIa, Nossan srl, Correzzana, Milan, Italy) aged 7-10 weeks. Portions of the skin (ca 9 cm^2), after removal of adhering fat and subcutaneous tissues, were placed as a barrier between the two compartment of Gummer permeation vertical cells (Gummer, C. L. et al. The skin penetration cell: design update. Int. J. Pharm. 1987, 40, 101-104). The receiving phase was introduced into the lower compartment and 75.0 μL of the composition according to the Example 4 were regularly distributed on the exposed skin surface. At predetermined time intervals (1, 2, 3, 4 and 5 hours) 5.0 mL of the receiving solution were collected for analysis and immediately replaced by an equal volume of fresh buffer. The experiment was replicated 6 times.

With `Cc1cc(C2CCCCC2)n(O)c(=O)c1` [ciclopirox] the “permeation through mice skin, conclusion” value was “able to permeate the mice skin”, the ciclopirox permeated (h 1) was 0.001548 mg/cm^2 and 0.002964 mg/cm^2 and 0.001542 mg/cm^2 and 0.001617 mg/cm^2 and 0.00487 mg/cm^2 and 0.02038 mg/cm^2 and the ciclopirox permeated (h 2) was 0.01134 mg/cm^2 and 0.05066 mg/cm^2 and 0.01241 mg/cm^2 and 0.0445 mg/cm^2 and 0.04696 mg/cm^2 and 0.1182 mg/cm^2. For the same compound, the ciclopirox permeated (h 3) was 0.05601 mg/cm^2 and 0.102 mg/cm^2 and 0.04902 mg/cm^2 and 0.1745 mg/cm^2 and 0.2725 mg/cm^2 and 0.4084 mg/cm^2, the ciclopirox permeated (h 4) was 0.1146 mg/cm^2 and 0.1226 mg/cm^2 and 0.08552 mg/cm^2 and 0.2757 mg/cm^2 and 0.5273 mg/cm^2 and 0.7623 mg/cm^2 and the ciclopirox permeated (h 5) was 0.1721 mg/cm^2 and 0.1401 mg/cm^2 and 0.1517 mg/cm^2 and 0.328 mg/cm^2 and 0.7212 mg/cm^2 and 1.025 mg/cm^2.

— patent US20100062083A1, “DERMAL FILM-FORMING LIQUID FORMULATIONS FOR DRUG RELEASE TO SKIN” (POLICHEM S.A., priority 2007, published 2010)
